Data set [1] deals with H1755 cells. Briefly: Cellular phospho-ERK inhibition assay in H1755 cells. The note with it: Homo sapiens, NCI-H1755, 2 hours treatment, read-out: H1755 Cell IC50. The format is cell-based. Put shortly:
(§1)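 A375 (DMEM) or H1755 (RPMI) cells in 10% FBS treated 2 h at 37 °C with 9-point series, 66 pM–10 μM, 0.25% DMSO. Phospho-ERK1/2 (Thr202/Tyr204) measured by In Cell Western, normalised to GAPDH and to DMSO and 10 μM binimetinib controls; IC50 by 4-parameter fit.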

Data set [2] deals with BCRP (Homo sapiens (Human), UniProt Q9UNQ0). Nature of the data set: BCRP MDCKII permeability assay: efflux ratio. The format is in vitro ADME. As to conditions: dog.
Chain of BCRP (Q9UNQ0 whole entry): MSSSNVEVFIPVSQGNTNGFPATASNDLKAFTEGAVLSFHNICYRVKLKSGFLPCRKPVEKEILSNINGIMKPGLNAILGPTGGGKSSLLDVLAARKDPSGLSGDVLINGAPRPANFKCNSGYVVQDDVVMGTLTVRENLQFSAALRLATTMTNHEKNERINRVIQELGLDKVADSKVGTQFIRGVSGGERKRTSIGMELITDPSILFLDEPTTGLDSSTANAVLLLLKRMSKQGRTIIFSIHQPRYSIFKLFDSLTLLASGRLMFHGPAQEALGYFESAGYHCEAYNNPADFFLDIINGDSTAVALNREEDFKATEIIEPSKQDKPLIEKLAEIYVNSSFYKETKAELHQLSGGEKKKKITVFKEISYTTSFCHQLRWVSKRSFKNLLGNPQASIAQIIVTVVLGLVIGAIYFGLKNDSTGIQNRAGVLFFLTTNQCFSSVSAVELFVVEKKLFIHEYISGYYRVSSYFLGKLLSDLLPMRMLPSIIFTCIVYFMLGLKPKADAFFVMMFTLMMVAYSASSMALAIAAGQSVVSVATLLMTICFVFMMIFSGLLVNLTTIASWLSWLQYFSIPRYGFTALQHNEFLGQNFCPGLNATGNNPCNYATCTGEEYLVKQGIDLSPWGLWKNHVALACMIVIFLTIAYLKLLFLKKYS
A short description of data set [3]: PK (free brain-to-free plasma ratio) (mouse). The class given is in vivo. As to conditions: male CD-1 mice, oral gavage 10 mg/kg, unbound brain-to-unbound plasma, read-out: B/P ratio (free). The procedure:
The ability of representative compounds to penetrate the BBB in mice was determined by evaluating the unbound brain-to-unbound plasma (also referred to as free brain-to-free plasma) concentration ratio in male CD-1 mice.
Brain compound levels were generated from oral mouse PK dosing with typical sampling times of 2, 4, 8, 12 and 24 hours post oral gavage dosing at 10 mg/kg. Brain samples were stored at −20±5° C. prior to analysis. Concentrations of test compound in mouse brain homogenate were determined by liquid chromatography tandem mass spectrometry (LC-MS/MS) following protein precipitation with acetonitrile. A 12-point calibration curve, ranging from 0.5 to 10,000 ng/mL, was prepared in duplicate. A solution of 400 μg/mL of test compound in dimethyl sulfoxide (DMSO) was serially diluted (3-fold) in 100% DMSO, and then 2.5 μL of each standard solution was added to 100 μL of naïve male CD-1 mice brain homogenate. To mimic the extraction in the standard curve, 2.5 μL of DMSO was added to all test samples. Both calibration and test brain homogenate samples were spiked with 10 μL of an IS (1 μg/mL of a structural analog). Brain homogenate was generated by adding 0.75 mL of 4:1 water:MeOH to each brain sample followed by homogenization for 1 minute with bead beater tubes a 6 m/s using an MP Fast Prep-24®. Proteins were precipitated from 100 μL of brain homogenate sample by the addition of 300 μL of acetonitrile. Samples were vortex-mixed for 5 minutes and spun in an Allegra X-12R centrifuge (Beckman Coulter, Fullerton, CA; SX4750A rotor) for 15 min at approximately 1,500×g at 4° C. A 100 μL aliquot of each supernatant was transferred via a 550 μL Personal Pipettor (Apricot Designs, Monrovia, CA) to 96-well plates and diluted 1:1 with HPLC grade water. The resulting plates were sealed with aluminum for LC-MS/MS analysis.
Brain-to-plasma ratios were calculated using the concentration of compound measured in the brain divided by the concentration of compound measured in the plasma. Brain-to-plasma ratios were always generated from a single animal and time point. Free brain-to-free plasma ratios were calculated by multiplying the brain-to-plasma ratio by the in vitro brain homogenate free fraction divided by the in vitro plasma free fraction using the following equation: (B/P)*(Bfu/Pfu). Table C provides the free brain-to-free plasma ratios of compounds disclosed herein.

Data set [4] in a line: MDR1 LLC-PK1 and BCRP MDCKII permeability assay: permeability coefficient (Papp). The format is in vitro ADME. From the text:
(§2) Final organic concentration in the assay was 1%.

For data set [5], the target named is full-length FLAG-tagged B-Raf(V600E) (Homo sapiens (Human), UniProt P15056, V600E). Briefly: BRAF V600E enzyme assay (TR-FRET competitive displacement). As to conditions: averaged IC50; TR-FRET tracer displacement, 60 min. The class given is binding. Put shortly: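 Displacement of 50 nM Tracer 1710 from 5 nM full-length N-terminally FLAG-tagged B-Raf(V600E), detected by TR-FRET with 0.5 nM Eu anti-FLAG antibody, in 25 mM HEPES pH 7.4, 10 mM MgCl2, 2% DMSO; 60 min at ~22 °C. Compounds 11-point, 3-fold from 10 μM; IC50 from 4-parameter fit at 50 POC.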
Chain of full-length FLAG-tagged B-Raf(V600E) (P15056 whole entry V600E): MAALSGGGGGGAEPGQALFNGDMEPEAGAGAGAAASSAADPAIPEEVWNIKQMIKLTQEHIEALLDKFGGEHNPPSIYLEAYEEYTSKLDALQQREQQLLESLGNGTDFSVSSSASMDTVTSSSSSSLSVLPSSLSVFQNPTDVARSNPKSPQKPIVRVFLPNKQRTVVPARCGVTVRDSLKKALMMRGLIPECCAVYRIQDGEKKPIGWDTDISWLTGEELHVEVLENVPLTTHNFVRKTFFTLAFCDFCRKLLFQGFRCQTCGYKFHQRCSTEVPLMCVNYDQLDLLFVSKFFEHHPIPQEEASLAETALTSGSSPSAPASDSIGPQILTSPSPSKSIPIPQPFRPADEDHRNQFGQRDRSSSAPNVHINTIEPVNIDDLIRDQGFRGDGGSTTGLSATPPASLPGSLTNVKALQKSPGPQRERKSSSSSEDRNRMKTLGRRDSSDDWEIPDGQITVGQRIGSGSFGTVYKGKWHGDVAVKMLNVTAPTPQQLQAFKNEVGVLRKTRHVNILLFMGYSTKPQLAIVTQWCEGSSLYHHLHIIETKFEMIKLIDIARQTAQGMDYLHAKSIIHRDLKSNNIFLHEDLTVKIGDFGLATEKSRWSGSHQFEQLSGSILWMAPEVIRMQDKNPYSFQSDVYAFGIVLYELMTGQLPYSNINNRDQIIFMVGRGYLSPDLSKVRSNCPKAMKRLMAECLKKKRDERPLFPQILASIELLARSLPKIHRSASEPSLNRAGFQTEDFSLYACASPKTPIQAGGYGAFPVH
(Time-resolved FRET reads energy transfer from a long-lived donor to a nearby acceptor.)

The target of data set [6] is P-gp (MDR1) (Homo sapiens (Human), UniProt P08183). Nature of the data set: MDR1 LLC-PK1 permeability assay: efflux ratio. The format is in vitro ADME. As to conditions: pig.
Chain of P-gp (MDR1) (P08183 whole entry, species assumed): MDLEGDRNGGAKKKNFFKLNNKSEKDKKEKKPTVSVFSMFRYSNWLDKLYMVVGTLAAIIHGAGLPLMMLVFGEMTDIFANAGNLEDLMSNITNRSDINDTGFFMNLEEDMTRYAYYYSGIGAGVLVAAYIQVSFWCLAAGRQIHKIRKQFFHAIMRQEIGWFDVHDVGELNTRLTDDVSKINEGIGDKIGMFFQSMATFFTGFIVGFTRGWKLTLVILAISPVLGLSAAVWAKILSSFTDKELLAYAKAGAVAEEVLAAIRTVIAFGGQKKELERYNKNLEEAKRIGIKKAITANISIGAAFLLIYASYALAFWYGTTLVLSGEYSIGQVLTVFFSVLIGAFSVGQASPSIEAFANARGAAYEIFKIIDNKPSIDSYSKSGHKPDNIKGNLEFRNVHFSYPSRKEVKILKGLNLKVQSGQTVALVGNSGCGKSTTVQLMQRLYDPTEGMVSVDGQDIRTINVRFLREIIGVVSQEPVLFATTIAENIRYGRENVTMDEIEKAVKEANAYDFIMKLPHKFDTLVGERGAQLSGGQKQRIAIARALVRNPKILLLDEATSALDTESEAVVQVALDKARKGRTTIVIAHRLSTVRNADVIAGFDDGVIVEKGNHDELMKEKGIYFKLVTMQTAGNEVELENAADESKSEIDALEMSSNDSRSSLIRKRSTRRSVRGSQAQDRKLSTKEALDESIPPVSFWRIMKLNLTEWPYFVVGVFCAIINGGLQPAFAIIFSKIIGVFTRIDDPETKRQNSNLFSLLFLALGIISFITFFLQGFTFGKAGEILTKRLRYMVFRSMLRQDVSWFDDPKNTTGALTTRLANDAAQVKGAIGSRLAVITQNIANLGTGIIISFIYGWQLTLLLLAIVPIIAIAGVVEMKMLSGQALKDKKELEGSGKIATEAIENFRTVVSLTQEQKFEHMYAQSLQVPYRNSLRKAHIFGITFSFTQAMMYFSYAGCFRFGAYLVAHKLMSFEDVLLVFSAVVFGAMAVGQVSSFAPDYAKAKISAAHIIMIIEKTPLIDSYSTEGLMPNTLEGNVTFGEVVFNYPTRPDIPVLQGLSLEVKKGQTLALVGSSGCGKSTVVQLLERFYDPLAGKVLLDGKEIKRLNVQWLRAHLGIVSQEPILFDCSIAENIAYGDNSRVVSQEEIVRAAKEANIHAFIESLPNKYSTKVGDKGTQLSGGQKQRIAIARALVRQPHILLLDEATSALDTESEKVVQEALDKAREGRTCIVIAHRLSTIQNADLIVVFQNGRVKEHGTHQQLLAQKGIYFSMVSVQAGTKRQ
Source text: as §2

For data set [7], the system named is A375 cells. Nature of the data set: Cellular phospho-ERK inhibition assay in A375 cells. The format is cell-based. As to conditions: Homo sapiens, A-375, A375 cells (head prints A357), 2 hours treatment, read-out: A357 cell IC50. Put shortly:
as §1

Here are results for six compounds from patent US12303509B2, “Compounds for the treatment of BRAF-associated diseases and disorders” (Pfizer Inc., priority 2020, dated 2025).

Counter-ions that a name gives are not always drawn.

Usually IC50 stands for the concentration that inhibits the measured activity by half. Broadly, the efflux ratio is a quotient of directional permeabilities that is used to spot active efflux. Usually Papp stands for the rate of passage across a membrane or cell layer, normalised by area and donor concentration. A high value points to ready permeation.

Take `Cn1cnc2ccc(Nc3c(F)ccc(NS(=O)(=O)N4CC5CC4C5)c3Cl)c(Cl)c2c1=O` [Example 9, N-(2-chloro-3-((5-chloro-3-methyl-4-oxo-3,4-dihydroquinazolin-6-yl)amino)-4-fluorophenyl)-2-azabicyclo[2.1.1]hexane-2-sulfonamide trifluoroacetate]: the IC50 worked out at 85 nM in data set [1], 7 nM in data set [5] and 14 nM in data set [7]. Besides, the efflux ratio at 2 h, 1 µM in data set [2] and in data set [6] was 1.1 each time. The Kp in data set [3] was 0.36 to 0.4. The same compound registered a Papp at 2 h, 1 µM in data set [4] of 29 ×10⁻⁶ cm/s.
For `Cn1cnc2ccc(Nc3c(F)ccc(NS(=O)(=O)N4CCCC4)c3Cl)c(Cl)c2c1=O` [Example 12, N-(2-chloro-3-((5-chloro-3-methyl-4-oxo-3,4-dihydroquinazolin-6-yl)amino)-4-fluorophenyl)pyrrolidine-1-sulfonamide trifluoroacetate], the IC50 was determined as 97 nM in data set [1], 7 nM in data set [5] and 8 nM in data set [7]. Moreover, the results for the efflux ratio at 2 h, 1 µM in data set [2] and in data set [6] were 0.9 and 1.1, respectively. Also, the Kp in data set [3] is 0.34 to 0.39. Also, in data set [4], the Papp at 2 h, 1 µM was 28 ×10⁻⁶ cm/s.
Consider `Cn1cnc2ccc(Nc3c(F)ccc(NS(=O)(=O)N4CC5CC5C4)c3Cl)c(Cl)c2c1=O` (stereo not drawn) [Example 17, N-(2-chloro-3-((5-chloro-3-methyl-4-oxo-3,4-dihydroquinazolin-6-yl)amino)-4-fluorophenyl)-3-azabicyclo[3.1.0]hexane-3-sulfonamide], for which the concentration for half-maximal inhibition (IC50) in data set [1] was 80 nM; in data set [5], 4 nM; in data set [7], 7 nM. Also, the figures for the efflux ratio at 2 h, 1 µM in data set [2] and in data set [6] were 1.1 and 1.3, respectively. For the same compound, in data set [3], the Kp lay in the range of 0.61 to 0.64. Further, the Papp at 2 h, 1 µM in data set [4] was determined as 24 ×10⁻⁶ cm/s.
Take `Cn1cnc2ccc(Nc3c(F)ccc(NS(=O)(=O)N4CC[C@@H](F)C4)c3Cl)c(Cl)c2c1=O` [Example 19, (R)-N-(2-chloro-3-((5-chloro-3-methyl-4-oxo-3,4-dihydroquinazolin-6-yl)amino)-4-fluorophenyl)-3-fluoropyrrolidine-1-sulfonamide]: the IC50 in data set [1] was 39 nM; in data set [5] it was 4 nM; in data set [7] it was 5 nM. Further, the results for the efflux ratio at 2 h, 1 µM in data set [2] and in data set [6] were 1.3 and 2.1, respectively. The Kp in data set [3] lay within 0.61 to 0.83. Besides, in data set [4], the Papp at 2 h, 1 µM came to 30 ×10⁻⁶ cm/s.
Consider `Cn1cnc2ccc(Oc3c(F)ccc(NS(=O)(=O)N4CC[C@@H](F)C4)c3Cl)c(F)c2c1=O` [Example 20, (R)-N-(2-chloro-4-fluoro-3-((5-fluoro-3-methyl-4-oxo-3,4-dihydroquinazolin-6-yl)oxy)phenyl)-3-fluoropyrrolidine-1-sulfonamide], for which the values for the IC50 in data set [1], in data set [5] and in data set [7] were 29 nM, 3 nM and 2 nM, respectively. The efflux ratio at 2 h, 1 µM in data set [2] stood at 1.8; in data set [6], 2.2. The Kp in data set [3] fell in the range of 0.4 to 0.58. Moreover, in data set [4], the Papp at 2 h, 1 µM was 37 ×10⁻⁶ cm/s.
On to `Cn1cnc2ccc(Nc3c(F)ccc(NS(=O)(=O)N4CC[C@@H](OC(F)F)C4)c3Cl)c(Cl)c2c1=O` [Example 29, (R)-N-(2-chloro-3-((5-chloro-3-methyl-4-oxo-3,4-dihydroquinazolin-6-yl)amino)-4-fluorophenyl)-3-(difluoromethoxy)pyrrolidine-1-sulfonamide], for which the IC50 in data set [1] stood at 35 nM; in data set [5] it was 3 nM; in data set [7], 9 nM. In addition, the efflux ratio at 2 h, 1 µM stood at 2.9 in data set [2] and 1.7 in data set [6]. Moreover, in data set [3], the Kp was 0.41 to 0.55. In data set [4], this compound had a Papp at 2 h, 1 µM of 28 ×10⁻⁶ cm/s.
